Earlier results as cited in publication PMC7397562 (Drug Design, Development and Therapy, 2020).

SMILES: COc1ccc(-c2cc(=O)c3c(OC)c(OC)c(OC)c(OC)c3o2)cc1 [TAGE, tangeretin]
- Oral absolute bioavailability (mean value): < 3.05%
